Experiments:
Assay type in all cases: functional, Salmonella enterica subsp. enterica serovar Typhi
[1] = tested on: Salmonella enterica subsp. enterica; assay: Antimicrobial activity against multidrug-resistant Salmonella enterica Serovar Typhi isolate AG8 harboring DNA gyrase A S83F mutation by disk diffusion method
[2] = tested on: Salmonella enterica subsp. enterica; assay: Antimicrobial activity against multidrug-resistant Salmonella enterica Serovar Typhi isolate AG16 harboring DNA gyrase A S83F mutation by disk diffusion method
[3] = tested on: Salmonella enterica subsp. enterica; assay: Antimicrobial activity against multidrug-resistant Salmonella enterica Serovar Typhi isolate nar 45 harboring DNA gyrase A S83F mutation by disk diffusion method
[4] = tested on: Salmonella enterica subsp. enterica; assay: Antimicrobial activity against multidrug-resistant Salmonella enterica Serovar Typhi isolate AG17 harboring DNA gyrase A S83F mutation by disk diffusion method
[5] = tested on: Salmonella enterica subsp. enterica; assay: Antimicrobial activity against Salmonella enterica Serovar Typhi isolate nar 108 harboring DNA gyrase A S83F mutation by disk diffusion method in presence of plasmid mediated quinolone-resistant gene qnrA and qnrS
[6] = tested on: Salmonella enterica subsp. enterica; assay: Antimicrobial activity against Salmonella enterica Serovar Typhi isolate E86 harboring DNA gyrase A S83F mutation by disk diffusion method in presence of plasmid mediated quinolone-resistant gene qnrA and qnrS
[7] = tested on: Salmonella enterica subsp. enterica; assay: Antimicrobial activity against multidrug-resistant Salmonella enterica Serovar Typhi isolate nar 46 harboring DNA gyrase A D87G mutation by disk diffusion method
[8] = tested on: Salmonella enterica subsp. enterica; assay: Antimicrobial activity against multidrug-resistant Salmonella enterica Serovar Typhi isolate B111 harboring DNA gyrase A S83Y mutation by disk diffusion method in presence of plasmid mediated quinolone-resistant gene qnrA and qnrS
[9] = tested on: Salmonella enterica subsp. enterica; assay: Antimicrobial activity against Salmonella enterica Serovar Typhi isolate D43 harboring DNA gyrase A S83Y mutation by disk diffusion method in presence of plasmid mediated quinolone-resistant gene qnrA and qnrS
[10] = tested on: Salmonella enterica subsp. enterica; assay: Antimicrobial activity against multidrug-resistant Salmonella enterica Serovar Typhi isolate AG15 harboring DNA gyrase A S83F mutation by disk diffusion method
[11] = tested on: Salmonella enterica subsp. enterica; assay: Antimicrobial activity against multidrug-resistant Salmonella enterica Serovar Typhi isolate DT49 harboring DNA gyrase A S83F mutation by disk diffusion method
[12] = tested on: Salmonella enterica subsp. enterica; assay: Antimicrobial activity against multidrug-resistant Salmonella enterica Serovar Typhi isolate ipt 32 harboring DNA gyrase A S83F mutation by disk diffusion method
[13] = tested on: Salmonella enterica subsp. enterica; assay: Antimicrobial activity against multidrug-resistant Salmonella enterica Serovar Typhi isolate DT2 harboring DNA gyrase A S83F mutation by disk diffusion method in presence of plasmid mediated quinolone-resistant gene qnrA and qnrS
[14] = tested on: Salmonella enterica subsp. enterica; assay: Antimicrobial activity against Salmonella enterica Serovar Typhi isolate BL 21801 harboring DNA gyrase A S83F mutation by disk diffusion method in presence of plasmid mediated quinolone-resistant gene qnrA and qnrS
[15] = tested on: Salmonella enterica subsp. enterica; assay: Antimicrobial activity against Salmonella enterica Serovar Typhi isolate AG259 harboring DNA gyrase A S83F mutation by disk diffusion method in presence of plasmid mediated quinolone-resistant gene qnrA and qnrS
[16] = tested on: Salmonella enterica subsp. enterica; assay: Antimicrobial activity against Salmonella enterica Serovar Typhi isolate ipt 2 harboring DNA gyrase A D87G mutation by disk diffusion method in presence of plasmid mediated quinolone-resistant gene qnrA and qnrS
[17] = tested on: Salmonella enterica subsp. enterica; assay: Antimicrobial activity against multidrug-resistant Salmonella enterica Serovar Typhi isolate DT18 harboring DNA gyrase A S83F and D87G mutation by disk diffusion method
[18] = tested on: Salmonella enterica subsp. enterica; assay: Antimicrobial activity against multidrug-resistant Salmonella enterica Serovar Typhi isolate CT29 harboring DNA gyrase A S83F mutation by disk diffusion method in presence of plasmid mediated quinolone-resistant gene qnrA and qnrS
[19] = tested on: Salmonella enterica subsp. enterica; assay: Antimicrobial activity against Salmonella enterica Serovar Typhi isolate CT142 harboring DNA gyrase A S83F mutation by disk diffusion method in presence of plasmid mediated quinolone-resistant gene qnrA and qnrS
[20] = tested on: Salmonella enterica subsp. enterica; assay: Antimicrobial activity against Salmonella enterica Serovar Typhi isolate AG3 harboring DNA gyrase A S83F mutation by disk diffusion method
[21] = tested on: Salmonella enterica subsp. enterica; assay: Antimicrobial activity against multidrug-resistant Salmonella enterica Serovar Typhi isolate AG5 harboring DNA gyrase A S83F mutation by disk diffusion method
[22] = tested on: Salmonella enterica subsp. enterica; assay: Antimicrobial activity against multidrug-resistant Salmonella enterica Serovar Typhi isolate DT15 harboring DNA gyrase A S83F mutation by disk diffusion method
[23] = tested on: Salmonella enterica subsp. enterica; assay: Antimicrobial activity against multidrug-resistant Salmonella enterica Serovar Typhi isolate DT37 harboring DNA gyrase A S83F mutation by disk diffusion method
[24] = tested on: Salmonella enterica subsp. enterica; assay: Antimicrobial activity against multidrug-resistant Salmonella enterica Serovar Typhi isolate nar 50 harboring DNA gyrase A S83F mutation by disk diffusion method
[25] = tested on: Salmonella enterica subsp. enterica; assay: Antimicrobial activity against multidrug-resistant Salmonella enterica Serovar Typhi isolate DT9 harboring DNA gyrase A S83F mutation by disk diffusion method
[26] = tested on: Salmonella enterica subsp. enterica; assay: Antimicrobial activity against Salmonella enterica Serovar Typhi isolate AG258 harboring DNA gyrase A S83F mutation by disk diffusion method in presence of plasmid mediated quinolone-resistant gene qnrA and qnrS
[27] = tested on: Salmonella enterica subsp. enterica; assay: Antimicrobial activity against multidrug-resistant Salmonella enterica Serovar Typhi isolate nar 107 harboring DNA gyrase A S83F mutation by disk diffusion method in presence of plasmid mediated quinolone-resistant gene qnrA and qnrS
[28] = tested on: Salmonella enterica subsp. enterica; assay: Antimicrobial activity against multidrug-resistant Salmonella enterica Serovar Typhi isolate DT3 harboring DNA gyrase A S83F mutation by disk diffusion method in presence of plasmid mediated quinolone-resistant gene qnrA and qnrS
[29] = tested on: Salmonella enterica subsp. enterica; assay: Antimicrobial activity against multidrug-resistant Salmonella enterica Serovar Typhi isolate HTD 798 harboring DNA gyrase A S83F mutation by disk diffusion method
[30] = tested on: Salmonella enterica subsp. enterica; assay: Antimicrobial activity against multidrug-resistant Salmonella enterica Serovar Typhi isolate BL 21095 harboring DNA gyrase A S83F mutation by disk diffusion method in presence of plasmid mediated quinolone-resistant gene qnrA and qnrS
[31] = tested on: Salmonella enterica subsp. enterica; assay: Antimicrobial activity against multidrug-resistant Salmonella enterica Serovar Typhi isolate AG176 harboring DNA gyrase A S83F mutation by disk diffusion method
[32] = tested on: Salmonella enterica subsp. enterica; assay: Antimicrobial activity against multidrug-resistant Salmonella enterica Serovar Typhi isolate AG152 harboring DNA gyrase A S83F and D87G mutation by disk diffusion method in presence of plasmid mediated quinolone-resistant gene qnrA and qnrS
[33] = tested on: Salmonella enterica subsp. enterica; assay: Antimicrobial activity against multidrug-resistant Salmonella enterica Serovar Typhi isolate AG6 harboring DNA gyrase A S83F mutation by disk diffusion method
[34] = tested on: Salmonella enterica subsp. enterica; assay: Antimicrobial activity against multidrug-resistant Salmonella enterica Serovar Typhi isolate AG168 harboring DNA gyrase A S83F mutation by disk diffusion method
[35] = tested on: Salmonella enterica subsp. enterica; assay: Antimicrobial activity against Salmonella enterica Serovar Typhi isolate CT145 harboring DNA gyrase A S83F mutation by disk diffusion method in presence of plasmid mediated quinolone-resistant gene qnrA and qnrS
[36] = tested on: Salmonella enterica subsp. enterica; assay: Antimicrobial activity against multidrug-resistant Salmonella enterica Serovar Typhi isolate DT54 harboring DNA gyrase A S83F mutation by disk diffusion method
[37] = tested on: Salmonella enterica subsp. enterica; assay: Antimicrobial activity against multidrug-resistant Salmonella enterica Serovar Typhi isolate DT42 harboring DNA gyrase A S83F mutation by disk diffusion method
[38] = tested on: Salmonella enterica subsp. enterica; assay: Antimicrobial activity against Salmonella enterica Serovar Typhi isolate AG182 harboring DNA gyrase A S83F mutation by disk diffusion method
[39] = tested on: Salmonella enterica subsp. enterica; assay: Antimicrobial activity against multidrug-resistant Salmonella enterica Serovar Typhi isolate A102 harboring DNA gyrase A S83Y mutation by disk diffusion method in presence of plasmid mediated quinolone-resistant gene qnrA and qnrS
[40] = tested on: Salmonella enterica subsp. enterica; assay: Antimicrobial activity against multidrug-resistant Salmonella enterica Serovar Typhi isolate nar 102 harboring DNA gyrase A S83F mutation by disk diffusion method in presence of plasmid mediated quinolone-resistant gene qnrA and qnrS

Measured: MIC

CCn1cc(C(=O)O)c(=O)c2ccc(C)nc21 [NALIDIXIC ACID]
128 µg/mL: [35] | [40]
> 256 µg/mL: [1] | [2] | [4] | [6] | [8] | [9] | [10] | [11] | [13] | [14] | [15] | [17] | [19] | [20] | [21] | [22] | [23] | [25] | [26] | [28] | [29] | [30] | [31] | [32] | [33] | [34] | [36] | [37] | [38] | [39]
256 µg/mL: [3] | [5] | [12] | [16] | [18] | [24] | [27]
64 µg/mL: [7]

CC1COc2c(N3CCN(C)CC3)c(F)cc3c(=O)c(C(=O)O)cn1c23 (stereo not given) [OFLOXACIN]
0.5 µg/mL: [3] | [6] | [7] | [8] | [9] | [14] | [30] | [35] | [39]
3 µg/mL: [32]
1 µg/mL: [5] | [11] | [12] | [18] | [19] | [21] | [22] | [23] | [24] | [27] | [29] | [33] | [34] | [36] | [37] | [38] | [40]
0.75 µg/mL: [31]
1.5 µg/mL: [1] | [2] | [4] | [10] | [15] | [26]
2 µg/mL: [13] | [16] | [17] | [20] | [25] | [28]
